Like-named read-outs stand apart in the source and are kept apart here.
Legend:
[1] = biological target: T1, human recombinant COX2 (Homo sapiens, UniProt P35354); assay: COX inhibitor screening assay kit (Cayman No. 560131), COX2; assay type: biochemical; conditions: for COX1/COX2 Ratio Selectivity: ratio of IC50 COX1 to IC50 COX2; for IC50: run in duplicate with three concentrations (50, 20, and 5 µM)
T1 construct: purchased Cayman Chemical 560131 (kit)
T1 sequence (P35354 18-604): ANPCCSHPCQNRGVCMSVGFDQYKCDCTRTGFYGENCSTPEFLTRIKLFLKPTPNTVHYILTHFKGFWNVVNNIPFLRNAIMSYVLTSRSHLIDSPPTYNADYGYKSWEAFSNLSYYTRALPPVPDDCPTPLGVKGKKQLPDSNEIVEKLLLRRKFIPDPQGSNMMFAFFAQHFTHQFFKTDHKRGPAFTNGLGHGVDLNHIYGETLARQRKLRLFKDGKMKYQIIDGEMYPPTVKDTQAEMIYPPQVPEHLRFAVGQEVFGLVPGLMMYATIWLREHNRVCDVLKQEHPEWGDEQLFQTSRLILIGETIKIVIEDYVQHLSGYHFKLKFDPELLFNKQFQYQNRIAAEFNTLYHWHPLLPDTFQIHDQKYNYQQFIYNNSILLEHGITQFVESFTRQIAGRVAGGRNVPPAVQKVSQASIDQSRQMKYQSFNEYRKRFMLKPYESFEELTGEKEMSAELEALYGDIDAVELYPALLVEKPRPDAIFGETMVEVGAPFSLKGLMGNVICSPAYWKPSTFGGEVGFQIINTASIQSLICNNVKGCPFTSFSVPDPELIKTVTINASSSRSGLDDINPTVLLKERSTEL

[2] = MTS cytotoxicity assay on HeLa cells; assay type: cell-based; conditions: human
Method: An MTS assay was used to determine the cytotoxic effect of Benzodioxole derivatives on HeLa (cervical carcinoma cells).
All chemicals were purchased from Sigma-Aldrich and Alfa Aesar. Melting points were determined with an SMP-II Digital Melting Point Apparatus and are uncorrected. IR spectra were obtained using a Perkin Elmer Spectrum 400 FTIR/FTNIR spectrometer. ^1H-NMR and ^13C-NMR spectra were recorded in DMSO-d6 and were performed on two NMR instruments. The first was a Bruker 500 MHz-Avance III High-Performance Digital FT-NMR spectrometer at the Faculty of Science, Department of Chemistry, The University of Jordan, Jordan (it was used for the ^1H-NMR of just one compound, 3e). The second was a Bruker 300 MHz-Avance III High-Performance Digital FT-NMR spectrometer at the NMR facility at the Doping and Narcotics Analysis Laboratory of the faculty of pharmacy, Anadolu University, Turkey (it was used for both ^1H-NMR and ^13C-NMR for the other compounds). Tetramethylsilane was used as the internal standard. All chemical shifts were recorded as d (ppm). […] The yellow product of this enzymatic reaction was determined using a UV spectrophotometer with a Microplate Reader (BioRad, Japan) at a wavelength of 415 nm. HeLa Cervical Carcinoma cell line was purchased from ATCC (ATCC® CCL-2™), and the cyototoxicty test of the cell viability was assessed by the CellTilter 96® Aqueous One Solution Cell Proliferation (MTS) assay according to the manufacturer’s instructions (Promega Corporation, Madison, WI) (Additional file 1).
HeLa Cervical Carcinoma was cultured in RPMI-1640 media and supplemented with 10% fetal bovine serum, 1% penicillin/streptomycin antibiotics and 1% L-glutamine. Cells were grown in a humidified atmosphere with 5% CO2 at 37 °C, and they were seeded in 2.6 × 10^4 cells/well in a 96-well plate. After 48 h, the cells were confluent, the media was changed, and cells were incubated with four concentrations (2, 1, 0.5, and 0.2 mM) of the tested compounds for 24 h. Cell viability was assessed by the CellTilter 96® Aqueous One Solution Cell Proliferation (MTS) Assay according to the manufacturer’s instructions (Promega Corporation, Madison, WI). Briefly, at the end of the treatment, 20 μL of MTS solution per 100 μL of media was added to each well and incubated at 37 °C for 2 h. Absorbance was measured at 490 nm.

[3] = biological target: T2, ovine COX1 (Ovis aries, UniProt P05979); assay: COX inhibitor screening assay kit (Cayman No. 560131), COX1; assay type: biochemical
T2 construct: purchased Cayman Chemical 560131 (kit)
T2 sequence (P05979 25-600): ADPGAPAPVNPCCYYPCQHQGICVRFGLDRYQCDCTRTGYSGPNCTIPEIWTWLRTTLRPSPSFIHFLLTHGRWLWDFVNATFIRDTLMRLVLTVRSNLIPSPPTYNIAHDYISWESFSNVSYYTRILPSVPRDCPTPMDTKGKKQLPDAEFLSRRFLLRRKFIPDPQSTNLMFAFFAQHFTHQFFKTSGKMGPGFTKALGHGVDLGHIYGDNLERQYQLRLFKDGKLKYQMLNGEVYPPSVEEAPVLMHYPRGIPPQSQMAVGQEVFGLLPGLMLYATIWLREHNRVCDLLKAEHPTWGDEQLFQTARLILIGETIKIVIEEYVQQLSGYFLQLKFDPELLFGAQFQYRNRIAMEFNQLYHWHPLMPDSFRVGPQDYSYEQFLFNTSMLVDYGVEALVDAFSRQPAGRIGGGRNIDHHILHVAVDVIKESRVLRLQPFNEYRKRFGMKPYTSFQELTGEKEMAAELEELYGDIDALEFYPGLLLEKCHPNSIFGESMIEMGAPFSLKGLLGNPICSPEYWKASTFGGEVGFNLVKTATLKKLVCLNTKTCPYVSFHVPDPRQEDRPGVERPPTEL
Method: All chemicals were purchased from Sigma-Aldrich and Alfa Aesar. Melting points were determined with an SMP-II Digital Melting Point Apparatus and are uncorrected. IR spectra were obtained using a Perkin Elmer Spectrum 400 FTIR/FTNIR spectrometer. ^1H-NMR and ^13C-NMR spectra were recorded in DMSO-d6 and were performed on two NMR instruments. […] The second was a Bruker 300 MHz-Avance III High-Performance Digital FT-NMR spectrometer at the NMR facility at the Doping and Narcotics Analysis Laboratory of the faculty of pharmacy, Anadolu University, Turkey (it was used for both ^1H-NMR and ^13C-NMR for the other compounds). Tetramethylsilane was used as the internal standard. All chemical shifts were recorded as d (ppm). […] HeLa Cervical Carcinoma cell line was purchased from ATCC (ATCC® CCL-2™), and the cyototoxicty test of the cell viability was assessed by the CellTilter 96® Aqueous One Solution Cell Proliferation (MTS) assay according to the manufacturer’s instructions (Promega Corporation, Madison, WI) (Additional file 1).
The assay was run in duplicate with three concentrations (50, 20, and 5 µM). […] The percentage inhibition of the three concentrations was used to calculate the IC50 [16].

[4] = HeLa cervical carcinoma cells (ATCC CCL-2), HeLa, 24 h incubation, MTS, read-out: HeLa Cell CC50 in milli-molar
[5] = run in duplicate with three concentrations (50, 20, and 5 µM), read-out: The IC50 in µM of COX1

| SMILES | COX1/COX2 Ratio Selectivity [1] | IC50 [1] [µM] | melting point [°C] | IC50 [3, 5] [µM] | IC50 ([3]; The IC50 in µM of COX1, run in duplicate with three concentrations (50, 20, and 5 µM)) [µM] | CC50 at 24 h [2, 4] [µM] | CC50 at 24 h [2] [µM] |
| --- | --- | --- | --- | --- | --- | --- | --- |
| O=C(O)Cc1cc2c(cc1C(=O)c1cccc(Br)c1)OCO2 [4e, 2-(6-(3-bromobenzoyl)benzo[d][1, 3]dioxol-5-yl)acetic acid] | 0.144 | 49.3 | 154 to 156 | 7.11 | – | 437 | – |
| O=C(O)Cc1cc2c(cc1C(=O)c1ccccc1I)OCO2 [4b, 2-(6-(2-iodobenzoyl)benzo[d][1,3]dioxol-5-yl)acetic acid] | 0.250 | 30.7 | 147 to 149 | 7.67 | – | 697 | – |
| COC(=O)Cc1cc2c(cc1C(=O)c1ccc(I)cc1)OCO2 [3c, Methyl 2-(6-(4-iodobenzoyl)benzo[d][1,3]dioxol-5-yl)acetate] | 0.723 | 37.5 | 119 to 121 | 27.1 | – | 1790 | – |
| CC(C(=O)O)c1cccc(C(=O)c2ccccc2)c1 (stereo not drawn) [Ketoprofen, reference compound] | – | – | – | – | 0.031 | – | – |
| O=C(O)Cc1cc2c(cc1C(=O)c1ccc(I)cc1)OCO2 [4c, 2-(6-(4-iodobenzoyl)benzo[d][1,3]dioxol-5-yl)acetic acid] | 0.861 | 39.1 | 239.5 to 241.5 | 33.7 | – | 1050 | – |
| COC(=O)Cc1cc2c(cc1C(=O)c1cccc(Br)c1)OCO2 [3e, Methyl 2-(6-(3-bromobenzoyl)benzo[d][1, 3]dioxol-5-yl)acetate] | 0.864 | 2.73 | 72.5 to 74.5 | 2.36 | – | – | 219 |
| COC(=O)Cc1cc2c(cc1C(=O)c1ccc(Cl)cc1Cl)OCO2 [3f, Methyl 2-(6-(2,4-dichlorobenzoyl)benzo[d][1, 3]dioxol-5-yl)acetate] | – | – | 95 to 97 | – | – | – | – |

More lines, main results first:

| COX1/COX2 Ratio Selectivity [1] | IC50 [1] [µM] | melting point [°C] | IC50 [3, 5] [µM] | IC50 ([3]; The IC50 in µM of COX1, run in duplicate with three concentrations (50, 20, and 5 µM)) [µM] | SMILES | CC50 at 24 h [2, 4] [µM] | CC50 at 24 h [2] [µM] |
| --- | --- | --- | --- | --- | --- | --- | --- |
| 0.434 | 3.34 | 184.5 to 186.5 | 1.45 | – | O=C(O)Cc1cc2c(cc1C(=O)c1ccccc1)OCO2 [4a, 2-(6-benzoylbenzo[d][1,3]dioxol-5-yl)acetic acid] | 1940 | – |
| 0.897 | 1.45 | 85 to 87 | – | – | COC(=O)Cc1cc2c(cc1C(=O)c1ccccc1Br)OCO2 [3d, Methyl 2-(6-(2-bromobenzoyl)benzo[d][1,3]dioxol-5-yl)acetate] | 1610 | – |
| 0.862 | 1.3 | – | 1.12 | – | COC(=O)Cc1cc2c(cc1C(=O)c1ccccc1I)OCO2 [3b, Methyl 2-(6-(2-iodobenzoyl)benzo[d][1,3]dioxol-5-yl)acetate] | 228 | – |
| 0.859 | 14.3 | – | 12.3 | – | COC(=O)Cc1cc2c(cc1C(=O)c1ccccc1)OCO2 [3a, Methyl 2-(6-benzoylbenzo[d][1,3]dioxol-5-yl)acetate] | 1490 | – |
| 0.169 | 4.29 | 168.5 to 170 | 0.725 | – | O=C(O)Cc1cc2c(cc1C(=O)c1ccc(Cl)cc1Cl)OCO2 [4f, 2-(6-(2,4-dichlorobenzoyl)benzo[d][1,3]dioxol-5-yl)acetic acid] | 1020 | – |
| 1.809 | 2.35 | 145 to 147 | 4.25 | – | O=C(O)Cc1cc2c(cc1C(=O)c1ccccc1Br)OCO2 [4d, 2-(6-(2-bromobenzoyl)benzo[d][1,3]dioxol-5-yl)acetic acid] | 547 | – |

From paper PMC7487730, “Design, synthesis and biological evaluation of novel benzodioxole derivatives as COX inhibitors and cytotoxic agents” (BMC Chemistry, 2020)
